In PubChem BioAssay (NCI):
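Protocol summary: plate cells (96-well), add compound at 5 concentrations, incubate 48 h, interpolate endpoints linearly. TGI denotes the concentration required for complete inhibition of growth.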

Experiments:
Experiment in all cases: NCI tumour cell line growth inhibition, 48 h
[1] = tested on: EKVX NSCLC
[2] = tested on: HOP-62 NSCLC
[3] = tested on: NCI-H23 lung
[4] = tested on: KM20L2 colon
[5] = tested on: RXF 393 renal
[6] = tested on: RPMI-8226 leukemia
[7] = tested on: U251 CNS
[8] = tested on: M14 melanoma
[9] = tested on: HOP-18 NSCLC
[10] = tested on: DLD-1 colon
[11] = tested on: LOX IMVI melanoma
[12] = tested on: HL-60(TB) leukemia
[13] = tested on: SW-620 colon
[14] = tested on: SNB-78 CNS
[15] = tested on: SR leukemia
[16] = tested on: M19-MEL melanoma
[17] = tested on: NCI-H522 lung
[18] = tested on: NCI-H460 lung
[19] = tested on: KM12 colon
[20] = tested on: HT29 colon
[21] = tested on: OVCAR-4 ovarian
[22] = tested on: ACHN renal
[23] = tested on: DMS 114 small cell lung
[24] = tested on: 786-0 renal
[25] = tested on: UACC-257 melanoma
[26] = tested on: OVCAR-8 ovarian
[27] = tested on: XF 498 CNS
[28] = tested on: IGROV1 ovarian
[29] = tested on: SNB-75 CNS
[30] = tested on: CCRF-CEM leukemia
[31] = tested on: OVCAR-3 ovarian
[32] = tested on: HCT-116 colon
[33] = tested on: NCI-H226 lung
[34] = tested on: HOP-92 NSCLC
[35] = tested on: UACC-62 melanoma
[36] = tested on: MOLT-4 leukemia
[37] = tested on: MALME-3M melanoma
[38] = tested on: TK-10 renal
[39] = tested on: SF-295 CNS
[40] = tested on: HCT-15 colon
[41] = tested on: HCC-2998 colon
[42] = tested on: UO-31 renal
[43] = tested on: K-562 leukemia
[44] = tested on: SF-539 CNS
[45] = tested on: LXFL 529 NSCLC
[46] = tested on: SNB-19 CNS
[47] = tested on: A549 NSCLC
[48] = tested on: COLO 205 colon
[49] = tested on: DMS 273 small cell lung
[50] = tested on: SK-MEL-2 melanoma
[51] = tested on: SF-268 CNS
[52] = tested on: SK-OV-3 ovarian
[53] = tested on: SN12C renal
[54] = tested on: SK-MEL-28 melanoma
[55] = tested on: SK-MEL-5 melanoma
[56] = tested on: CAKI-1 renal
[57] = tested on: OVCAR-5 ovarian
[58] = tested on: RXF-631 renal
[59] = tested on: A498 renal

Measured: TGI

Cc1c(/C=N/NC(=O)c2ccccc2O)c(=O)n(-c2ccccc2)n1C
> 100 µM: [1] | [2] | [3] | [4] | [5] | [6] | [7] | [8] | [9] | [10] | [11] | [12] | [13] | [14] | [15] | [16] | [17] | [18] | [19] | [20] | [21] | [22] | [23] | [24] | [25] | [26] | [27] | [28] | [29] | [30] | [31] | [32] | [33] | [34] | [35] | [36] | [37] | [38] | [39] | [40] | [41] | [42] | [43] | [44] | [45] | [46] | [47] | [48] | [49] | [50] | [51] | [52] | [53] | [54]

Cn1c(=O)nc2n(-c3ccc(O)cc3)c3ccccc3nc-2c1=O
52.5 µM: [35]
59.7 µM: [44]
81.1 µM: [16]
64.2 µM: [31]
69.4 µM: [37]
> 100 µM: [1] | [2] | [3] | [4] | [6] | [7] | [8] | [9] | [55] | [10] | [56] | [12] | [13] | [14] | [17] | [57] | [18] | [19] | [20] | [21] | [22] | [23] | [24] | [25] | [26] | [27] | [28] | [29] | [30] | [32] | [33] | [34] | [36] | [58] | [38] | [39] | [40] | [41] | [42] | [43] | [45] | [59] | [46] | [47] | [48] | [49] | [50] | [51] | [52] | [53] | [54]
